In patent publication US9023986B2, “Glucose-dependent insulinotropic peptide analogs” (Hoffmann-La Roche Inc., priority 2010, dated 2015):
Non-standard residues stand in square brackets, D forms with d. Residues, ends and D or L forms follow the SMILES beside them.

Columns and labels:
[1] = stability in Hannover Wistar rat plasma; assay type: in vitro ADME; conditions: for stability in rat plasma (in words): acceptance range 75-125%
Description: (§1) The following study was conducted to assess the stability of the compound of Example 19 in Hannover Wistar rat and human plasma after 4 and 24 hours.
(§2) 2.08 mg of the compound of Example 19 was weighed out and placed in a 4 mL amber vial. To this was added 1.0 mL DMSO. The vial was carefully vortexed to produce a 573 μM stock solution of the compound.
(§3) Hannover Wistar rat plasma and human plasma (anti-coagulant sodium EDTA) were pre-warmed to 37° C. for 30 minutes in a water bath. Rat plasma pH was 7.45 and human plasma pH was 7.47. 1.5 mL microcentrifuge vials were used.
(§4) 8.70 μL of 573 μM stock solution of the compound of Example 19 was added to 491.34 μL of the rat plasma and placed into one vial. 8.74 μL of 573 μM stock solution of the compound of Example 19 was added to 491.34 μL of the human plasma and placed into another vial. The two vials were gently vortexed ensuring proper mixing.
(§5) Six new vials were labeled as follows: rat T0, rat T4, rat T24, human T0, human T4, human T24. To each of these vials, […] of treated plasma was added. The T4 and T24 vials were capped and placed in a 37° C. incubator for 4 and 24 hours, respectively.
(§6) To each of the two T0 vials, 50 µL of Sorensen buffer and 200 μL 1.0% acetic acid in acetonitrile were added. The T0 vials were then capped, vortexed and centrifuged at 10000×g for 10 minutes. Upon completion of centrifugation, 100 μL of the supernatant of each vial was added to a separate well in a 96-well injection block. 200 μL of 0.1% acetic acid in Milli-Q® water (Millipore) was then added to each well.
(§7) The above procedure as written with respect to the T0 vials was repeated for the two T4 vials at the 4 hour timepoint and the T24 vials at the 24 hour timepoint. With each timepoint a fresh T0 sample was prepared, as described above, to ensure there was no sample degradation.
(§8) All samples were analyzed by LC/MS/MS. The resulting chromatographs were processed to obtain peaks areas for each sample. The percent of compound remaining at each timepoint as compared with the amount present in the comparison T0 sample was calculated.

[2] = stability in human plasma; assay type: in vitro ADME
Description: as §1, §2, §3, §4, §5, §6, §7, §8

[3] = target: T1, human GIPR (Homo sapiens, UniProt P48546); assay: cAMP production in CHO-K1 cells expressing human GIPR (LANCE cAMP assay); assay type: cell-based; conditions: CHO-K1, read-out: % activation of cAMP (maximal stimulation)
T1 construct: host or cells: CHO-K1
T1 sequence (P48546 22-466): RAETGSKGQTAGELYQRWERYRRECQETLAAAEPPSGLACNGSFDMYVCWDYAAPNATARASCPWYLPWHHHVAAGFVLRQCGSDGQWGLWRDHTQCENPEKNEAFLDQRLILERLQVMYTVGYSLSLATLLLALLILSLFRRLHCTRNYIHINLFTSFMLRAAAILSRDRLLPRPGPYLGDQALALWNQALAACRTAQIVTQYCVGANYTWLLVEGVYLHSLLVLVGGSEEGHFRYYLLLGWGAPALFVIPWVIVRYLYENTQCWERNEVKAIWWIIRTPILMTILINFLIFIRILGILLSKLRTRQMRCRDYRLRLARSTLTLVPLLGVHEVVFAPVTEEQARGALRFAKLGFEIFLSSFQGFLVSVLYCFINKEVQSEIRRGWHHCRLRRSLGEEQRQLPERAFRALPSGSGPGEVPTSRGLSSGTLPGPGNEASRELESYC
Description: CHO—K1 cells expressing human GIPR were obtained from DiscoverX Corporation (Fremont, Calif.). The cells were cultured in Ham's F-12 nutrient media supplemented with 10% foetal bovine serum, 800 μg/ml geneticin, 300 μg/ml hydromycin, 2 mM L-glutamine, and Penicillin-streptomycin (100 units, 100 μg) at 37° C. in a 5% CO2 incubator. The cells were harvested at 90% confluence.
The cells were suspended in Ham's F-12 nutrient media to a concentration of 200,000 cells/ml. The cells were then plated in a 384 well plate at with […] of the suspension added per well. The cells were incubated overnight at 37° C. in a 5% CO2 incubator.
The activity of the compounds was determined by stimulating the CHO—K1 cells with the test compound, and measuring the levels of cAMP produced. The activity of the compounds was compared to the activity of native GIP, as GIP stimulates cAMP production. 6 μl of the test compound in stimulation buffer (990 ml Hank's Balanced Salt solution (HBSS) (1×) (Invitrogen Corp #14025-092), 10 ml Hepes buffer solution (1 mol·L) (Invitrogen Corp 15630-080), 1 g BSA (final 0.1%), and 1 ml IBMX 250 mM stock prepared fresh in DMSO (Sigma-Aldrich 15879)) were added to cells, followed by 6 μl of Alexa Fluor® 647-anti cAMP antibody (Perkin Elmer) in stimulation buffer. […] The well plate was centrifuged for 3 min at 300 rpm, and incubated at room temperature for 45 minutes. 12 μl of detection mixture (biotin cAMP and EUW8044 labeled streptavidin (Eu-SA) in cAMP Detection Buffer (Perkin Elmer)) was added and incubated for 60 min at room temperature.
The levels of cAMP produced were measured according to the detailed protocol outlined in the Perkin Elmer LANCE cAMP Assay Perkin Elmer Lance cAMP Kit manual. The activity of the compounds was compared to the activity of native GIP.
The plates are read on a TRF detection instrument, EnVision® (Perkin Elmer) (excitation at 340 nm and emission at 665 nm). The values of the cAMP signal are obtained from the standard cAMP curve and used to determine the amount of maximal stimulation, and EC50 for stimulating the cAMP signal.

## CC[C@H](C)[C@H](NC(=O)[C@H](C)NC(=O)[C@H](CC(=O)O)NC(=O)[C@H](CCSC)NC(=O)[C@H](C)NC(=O)[C@@H](NC(=O)[C@H](CO)NC(=O)[C@H](Cc1ccc(O)cc1)NC(=O)[C@H](CC(=O)O)NC(=O)[C@H](CO)NC(=O)[C@@H](NC(=O)[C@H](Cc1ccccc1)NC(=O)[C@@H](NC(=O)CNC(=O)[C@H](CCC(=O)O)NC(=O)[C@H](C)NC(=O)[C@@H](Cc1ccc(O)cc1)NC(C)=O)[C@@H](C)O)[C@@H](C)CC)[C@@H](C)CC)C(=O)N[C@@H](Cc1c[nH]cn1)C(=O)N[C@@H](CCC(N)=O)C(=O)N[C@@H](CCC(N)=O)C(=O)N[C@@H](CC(=O)O)C(=O)N[C@@H](Cc1ccccc1)C(=O)N[C@H](C(=O)N[C@@H](CC(N)=O)C(=O)N[C@@H](Cc1c[nH]c2ccccc12)C(=O)N[C@@H](CC(C)C)C(=O)N[C@@H](CC(C)C)C(=O)N[C@@H](C)C(=O)N[C@@H](CCC(N)=O)C(=O)N[C@@H](CCCCN)C(N)=O)C(C)C [Example 19] (Ac-[dY]AEGTFISDYSIAMDAIHQQDFVNWLLAQK-NH2)
[1]; 10 uM, 37° C., 4 hr, vs T0 sample, LC/MS/MS
  % Remaining 4 hr, Rat: 124.7%
[1]; 4 hours
  stability in rat plasma (in words): stable
[1]; 24 hour timepoint
  stability in rat plasma (in words): slightly below the acceptance range
[1]; Hannover Wistar, pH 7.45, 10 uM, 37° C., 24 hr, vs T0 sample, LC/MS/MS
  remaining at 24 h, 10 µM: 72.7%
[2]; both the 4 hour and the 24 hour timepoints
  stability in human plasma (in words): stable
[2]; pH 7.47, 10 uM, 37° C., 4 hr, vs T0 sample, LC/MS/MS
  remaining at 4 h, 10 µM: 93.6%
[2]; pH 7.47, 10 uM, 37° C., 24 hr, vs T0 sample, LC/MS/MS
  remaining at 24 h, 10 µM: 75.9%
[3]
  Emax: 100%
